From patent US20080027088A1, “Imidazole-Based Hmg-Coa Reductase Inhibitors” (Warner-Lambert Company, LLC, priority 2004, published 2008)

Tests used:
Assay type in all cases: in vivo
[1] = test system: ApoE KO mice fed a Western diet; test: Plasma lipoprotein cholesterol distribution by FPLC, 12 weeks; details: 0.3 mg/kg/day
Method: Animal experiments—Male C57BI/6J and ApoE KO mice on C57BI/6J background were obtained from the Jackson Laboratory (Bar Harbor, Me.) or Taconic (Germantown, N.Y.) (Plaque formation in ApoE KO mice is lipid-driven (A. S. Plump et al., Cell. 1992;71 (2):343-53)). Myriocin was mixed with Western diet containing 0.21% cholesterol and 21% fat. 8-12-week-old mice received 0.3 mg myriocin/kg/day for 12 weeks (Table 1). 10-12 week-old ApoE KO mice (n=8) were pre-fed a western diet for 2 weeks and mice received various concentrations of myriocin for 4 weeks in diet admix. Control groups consisted of ApoE KO mice fed normal chow or Western diet without myriocin, and normal chow-fed C57BI/6J mice. Body weight and chow feeding was measured every week to examine the food consumption. For the femoral artery cuff model, 8-10 week-old male ApoE KO mice were anethetized and the right femoral artery was dissected from its surroundings. A nonconstrictive polyethylene cuff (Portex, 0.40-mm inner diameter, 0.80-mm outer diameter, and 1.5-mm length) was placed looselyaround the right femoral artery.
Plasma lipids and serum amyloid A measurement—Mice were sacrificed by CO2 inhalation and blood was collected through cardiac puncture. Plasma concentrations of total cholesterol and triglyceride were determined enzymatically on a Cobas Mira Plus auto-analyzer using Cholesterol R1 and Triglycerides Reagent methods, respectively (Roche Diagnostics, Indiana, USA). Colormetric changes were measured at 500 nm. Lipoproteins were separated from mouse plasma by fast-protein liquid chromatography utilizing a Superose 6HR column. Cholesterol distribution among lipoproteins was determined by in-line post column analysis (K. A. Kieft, T. M. Bocan and B. R. Krause, J. Lipid Res. 1991; 32:859-66). Serum Amyloid A (SAA) protein in plasma was measured by ELISA according to the manufacturer's instructions (Biosource).
FIG. 6. Plasma Lipoprotein Distribution of ApoE KO Mice Fed a Western Diet. After 12 weeks of diet admix myriocin treatment (0.3 mg/kg/day), mice were sacrificed and plasma was isolated for lipoprotein composition. βVLDL (A), LDL (B) and HDL (C) Lipoproteins were separated from mouse plasma by fast-protein liquid chromatography (FPLC) utilizing a Superose 6HR column. Cholesterol distribution among lipoproteins was determined by in-line post column analysis (Kieft, K. A., T. M. A. Bocan, B. R. Krause, J. Lipid Res. 1991, 32:859-866.). The values reported are mean±SEM (n=5, *P<0.01, Western diet vs other study groups; n=5, #P<0.05, Western diet plus myriocin vs normal chow).

[2] = test system: ApoE KO mice fed a Western diet; test: Sphingomyelin in liver, plasma and aorta by LC/MS, 12 weeks; details: 0.3 mg/kg/day
From the text: Analysis of Sphingolipids and Phospholipids by LC/MS and HPLC-Total lipids were extracted by the modified method of Bligh-Dyer extraction (E. G. Bligh and W. J. Dyer, Can. J. Med. Sci. 1959;37:911-917; and D. K. Perry, A. Bielawska and Y. A. Hannun, Methods Enzymol. 2000;312:22-31). A Micromass (Waters Corp., Milford, Mass.) Quattro Ultima tandem quadrupole mass spectrometer with a standard Z-sprayTM ion source, set to electrospray positive ionization mode, with MassLynxTM version 3.5 operating software, was used for all quantitative determinations. Source conditions were typically as follows: capillary 3.5 kV, source temperature 110 degrees C., and desolvation temperature 325 degrees C. Multipliers were set to 650 V, and the dwell time for each analyte was 100 milliseconds. Precursor-to-product ion transitions were established through direct infusion of each compound into the mass spectrometer. The following ion transitions were used for quantification: sphingomyelin (704→184 m/z), sphinganine (302→284 m/z), ceramide (566→264 m/z) and psychosine (462→282 m/z) as an internal standard. For the instrument, at a collision cell pressure of 2×10^-3 mbar argon, cone and collision voltages were as follows: sphingomyelin (45V, 25 eV), sphinganine (45V, 15 eV), ceramide (45V, 25 eV) and psychosine (45V, 25 eV). The liquid chromatography system was composed of twin Shimadzu (Columbia, Md.) LC-10ADvp HPLC pumps with a SCL-10Avp controller (flow rate 0.2 mL/minute), and a LEAP Technologies (Carrboro, N.C.) CTC PAL autosampler. For the quantitative method, the analytical column was a Phenomenex (Torrance, Calif.) Polar-RP (2.0×150 mm, 4 μm) with a […] (Torrance, Calif.) MetaGuard Polaris C8 2.0 mm direct connect (5 μm) guard column. […] Lipid extracts were analyzed by HPLC and evaporative light scattering detector to determine plasma sphingomyelin and phosphatidylcholine (PC) levels (R. Homan and M.K. Anderson, J. Chromatogr. B. Biomed. Sci. Appl. 1998;708:21-6). […] Sphingomyelin levels in liver (A), plasma (B), and aorta (C) were determined by LC/MS. […]

[3] = test system: ApoE KO mice fed a Western diet; test: Lipid deposition in en face aorta, Oil Red O staining, 12 weeks
From the text: Vascular pathology—For quantitative analysis of atherosclerotic lesion coverage, sacrificed mice were perfused with saline and the aorta was isolated from the heart to the iliac bifurcation by severing minor branching arteries and dissecting the adventitia. After 24 hrs of fixation with 10% buffered formalin, aorta was opened longitudinally and pinned down on the black wax. Lipids were stained with Oil Red O and photographs were taken. The percentage of aorta stained with Oil Red O was determined by image analysis software, Image Pro Plus.
FIG. 10. Lipid deposition in aortae of Western-diet fed ApoE KO mice. ApoE KO mice were fed with Western diet in the presence or absence of myriocin for 12 weeks. Mice were sacrificed and fixed with 10% buffered formalin for 24 hours. The aorta from heart to the iliac bifurcation was dissected, opened along the ventral surface and pinned down on a black wax background. Accumulated lipids were visualized by Oil Red O staining. Areas of the atherosclerotic lesion were quantified by using Image Pro Plus and represented as percentage of lesion area to total aorta area. The values reported are mean±SEM (n=4, WD vs. WD+myriocin or normal chow, *P<0.01; Normal vs. WD+myriocin, #P<0.01). Bar represents 1 cm.

[4] = vs Western diet-fed ApoE KO mice

**Q.** For `CCCCCCC(=O)CCCCCC/C=C/C[C@@H](O)[C@H](O)[C@@](N)(CO)C(=O)O` [myriocin], which “plasma apoB levels” value ([1]; comparable to standard chow-fed group) is on record?
**A.** lowered

**Q.** And the HDL-cholesterol content increased [1, 4]?
**A.** 54%

**Q.** And the LDL-cholesterol lowered [1, 4]?
**A.** 35%

**Q.** And the βVLDL-cholesterol lowered [1, 4]?
**A.** 51%

**Q.** And the “aorta SM levels decreased” value [2]?
**A.** 20%

**Q.** And the “plasma SM lowered” value ([2]; Western diet-fed ApoE KO mice)?
**A.** 64%

**Q.** What about the “SM accumulation in liver” value [2, 4] of the same compound?
**A.** lowered

**Q.** What about the “atherosclerotic lesion decreased, en face aorta (Oil Red O)” value ([3]; compared with normal chow-fed ApoE KO mice) of the same compound?
**A.** 75%

**Q.** What about the “atherosclerotic lesion coverage reduced, en face aorta (Oil Red O)” value [3, 4] of the same compound?
**A.** 93%
